# Assay results as given in US20240391928A1, “COMPOSITIONS FOR THE TREATMENT OF FOOD AND CHEMICAL ADDICTION AND METHODS OF MAKING AND USING SAME” (Duke University, priority 2021, published 2024).
# Several values for one entry are separate records, joined by “and”; a condition that tells them apart may be missing. Equal values may be shown once.
# Assays:
# GHSR1a^E197A = target: T1, GHSR1a^E197A (Homo sapiens, UniProt Q92847, E197A); assay: TRUPATH Gαq dissociation at E197A mutant; assay type: cell-based
# T1 construct: expressed in transfected cells; host or cells: HEK293/T
# T1 sequence (Q92847 whole entry E197A): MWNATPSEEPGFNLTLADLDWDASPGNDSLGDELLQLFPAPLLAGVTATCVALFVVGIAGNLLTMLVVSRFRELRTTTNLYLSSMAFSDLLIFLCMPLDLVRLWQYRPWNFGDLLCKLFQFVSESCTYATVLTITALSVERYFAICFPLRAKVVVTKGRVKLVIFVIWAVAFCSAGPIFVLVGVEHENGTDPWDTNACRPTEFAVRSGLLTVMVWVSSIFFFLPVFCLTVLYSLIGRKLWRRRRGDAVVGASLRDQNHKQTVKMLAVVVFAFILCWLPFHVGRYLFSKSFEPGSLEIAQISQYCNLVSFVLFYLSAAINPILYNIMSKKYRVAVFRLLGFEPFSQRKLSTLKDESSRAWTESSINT
# hGHSR1a^WT [1] = target: T2, hGHSR1a^WT (Homo sapiens, UniProt Q92847); assay: SRF-RE transcriptional activity; assay type: cell-based; design: expressed in transfected cells; HEK293/S Gαq/11 KO and parental WT (iCa2+)
# T2 sequence (Q92847 whole entry): as the sequence (Q92847 whole entry E197A) above, with A197E counted along it
# Protocol: The next morning, media was removed and cells were serum starved with 90 μL of opti-MEM (containing no serum) for 2 hours at 37° C. Cells were then stimulated with 10× test compounds (diluted in serum-free opti-MEM) for 5 hours at 37° C. in a humidified incubator. Cells were then lysed in 20 μL of 1× passive lysis buffer (Promega) for 10 minutes on a shaker (RT). To measure luminescence, 40 μL of luciferin (in HBSS supplemented with 20 mM HEPES) was injected into in each well and immediately read by a Mithras 940 plate reader for 10 seconds.
# hGHSR1a^WT [2] = target: T2, hGHSR1a^WT; assay: Fixed-cell ELISA GHSR1a internalization; assay type: cell-based; design: expressed in transfected cells; HEK293/S Gαq/11 KO and parental WT (iCa2+); conditions: 45 minutes at 37° C.
# Protocol: Chemiluminescent Fixed-Cell ELISA. […] The next morning, media was removed and cells were serum starved with 90 μL of opti-MEM (containing no serum) for 2-3 hours at 37° C. Cells were then stimulated with 10× test compounds (diluted in serum-free opti-MEM) for 45 minutes at 37° C. in a humidified incubator. After 45 minutes, cells were fixed with 4% paraformaldehyde for 15 minutes (RT). Fixed cells were then washed three times with PBS (pH 7.4, Gibco) and blocked with fish gelatin in TBS (Rockland, Gilbertsville, PA) for 45 minutes. Cells were then incubated with a rabbit, horseradish peroxidase (HRP)-conjugated anti-HA antibody (1:2, 500; Novus Biologicals, Littleton, CO) for 1 hour (RT). […] The average luminescence was used and the data for each ligand were normalized its corresponding vehicle treatment conditions.
# GPCRome (320 receptors) = assay: PRESTO-Tango GPCRome β-arr2 recruitment screen, other receptors; assay type: cell-based; conditions: N8279 1 μM; hit >3-fold
# Protocol: Hits were defined as >3-fold activation above baseline. […] The assay quality was assessed by plotting duplicate, independent trial averages (derived from 4 independent wells) for each receptor as a point (X,Y). The corresponding plot of points for an ideal assay were fit by a regression line with the slope=1.
# hGHSR1a^WT-RLucII [3] = target: T3, hGHSR1a^WT-RLucII (Homo sapiens, UniProt Q92847); assay: Bystander BRET internalization (MyrPalm-Venus); assay type: cell-based; conditions: over 60 minutes
# T3 construct: expressed in transfected cells; host or cells: HEK293/T, transient
# T3 sequence (Q92847 whole entry): as the sequence (Q92847 whole entry E197A) above, with A197E counted along it
# Protocol: (§1) Bystander BRET (bBRET). hGHSR1a^WT-RLucII and plasma membrane marker, MyrPalm^mVenus, or the early endosomal marker, 2×-FYVE^mVenus, was transiently co-transfected in HEK293/T cells at a ratio of 1:5 or 1:12.5, respectively. […] Plates were then read by a Mithras 940 plate reader every 5 minutes over 1 hour (MyrPalm^mVenus) or 2 hours (2×FYVE^mVenus) to determine a BRET ratios. To generate CR curves, the average net BRET over 60 minutes post-treatment was used.
# [4] = target: T4, hGHSR1a^WT-LgBiT / SmBiT-β-arr2 (Homo sapiens, UniProt Q92847); assay: NanoBiT β-arr2 recruitment; assay type: cell-based
# T4 construct: expressed in transfected cells; host or cells: HEK293/T, transient
# T4 sequence (Q92847 whole entry): as the sequence (Q92847 whole entry E197A) above, with A197E counted along it
# T4 sequence (P32121 whole entry partner): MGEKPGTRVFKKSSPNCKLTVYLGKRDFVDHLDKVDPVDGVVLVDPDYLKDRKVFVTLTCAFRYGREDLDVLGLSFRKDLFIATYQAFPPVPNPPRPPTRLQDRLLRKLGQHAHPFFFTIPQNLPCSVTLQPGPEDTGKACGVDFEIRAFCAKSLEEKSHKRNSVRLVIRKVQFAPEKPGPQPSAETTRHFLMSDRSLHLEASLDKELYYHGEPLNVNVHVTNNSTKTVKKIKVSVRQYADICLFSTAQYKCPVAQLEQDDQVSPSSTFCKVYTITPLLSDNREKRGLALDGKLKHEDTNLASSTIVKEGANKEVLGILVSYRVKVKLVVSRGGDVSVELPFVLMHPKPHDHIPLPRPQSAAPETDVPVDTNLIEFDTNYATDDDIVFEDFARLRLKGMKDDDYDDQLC
# Protocol: (§3) β-arr2 recruitment: In agonist and antagonist assays of NanoBiT-based β-arr2 recruitment, hGHSR1a^WT-Lg^BiT and ^SmBiT-β^WT were transiently co-transfected at a 1:1 ratio (250 μg each) into monolayers of HEK293/T cells on 6-well plates along with 2 μg of pcDNA3.1. For assays employing the Ala204Glu variant, hGHSR1a^A204E-Lg^BiT was transfected at 2×hGHSR1a^WT-Lg^BiT, as performed for iCa^2+ assays with hGHSR1a^A204E described above. For GHSR1a-β-arr2 saturation assays, a fixed amount of hGHSR1a^WT-Lg^BiT cDNA (250 μg) was transfected with 0, 62.5 (1:0.25), 125 (1:0.5), 250 (1:1), 500 (1:2), or 1000 (1:4) μg of ^SmBiTβ-arr^WT. The morning after transfection, media was exchanged and after 4-6 hours, cells were then plated on white 96-well, clear-bottomed assay plates at a density of 45,000 cells/well in opti-MEM supplemented with 2% FBS and antibiotic/antimycotic. The following morning, opti-MEM was removed and cells were incubated with 70-80 μL HBSS supplemented with 20 mM HEPES (pH 7.4) for 4 hours. Cells were then treated with 10 μL of coelenterazine H (5 μM final) for 15-20 minutes at room temperature. Cells were then stimulated with 10 μL of test compounds and 2 minutes later, luminescence was measured over 5 minutes, which encompassed the peak β-arr2 recruitment signal.
# hGHSR1a^A204E [5] = target: T5, hGHSR1a^A204E (Homo sapiens, UniProt Q92847, A204E); assay: iCa2+ at A204E variant; assay type: cell-based; design: expressed in transfected cells; host or cells: HEK293/T, transient
# Protocol: (§2) For experiments with WT and Gt KO HEK293/S cells, […] of hGHSR1a^WT, 10 μg of miAEQ, and 2.5 μg of pcDNA3.1 was transiently transfected into 10 cm dishes and incubated overnight. […] Twenty-four hours later, experiments proceeded in accordance with the procedures described above. To control for any possible kinetic differences in genetically modified cell lines or GHSR1a variants, the average ligand-induced response over 10 seconds was calculated, then normalized by dividing the L-miAeq by the L-miAeq plus the Lysis-miAeq and normalized to the appropriate control/reference condition.
# Target sequence in this assay (Q92847 whole entry A204E): as the sequence (Q92847 whole entry E197A) above, with A197E, A204E counted along it
# [6] = target: T6, hGHSR1a^WT in Gαq/11 KO HEK293/S cells (Homo sapiens, UniProt Q92847); assay: iCa2+ in Gαq/11 KO HEK293/S cells; assay type: cell-based; conditions: 10 μM ligand
# T6 construct: expressed in transfected cells; SRF-RE reporter); HEK293/S Gαq/11 KO and parental WT (iCa2+)
# T6 sequence (Q92847 whole entry): as the sequence (Q92847 whole entry E197A) above, with A197E counted along it
# Protocol: as §2
# GHSR1a = GHSR1a (Homo sapiens, UniProt Q92847); assay: Bias factor, intrinsic relative activities (RAi) model, Gαq vs β-arr2; design: expressed in transfected cells; host or cells: HEK293/T and HEK293/N (the source assays)
# GHSR1a, sequence (Q92847 whole entry): as the sequence (Q92847 whole entry E197A) above, with A197E counted along it
# Text: To quantitatively assess N8279 bias between the Gαq and β-arr2 (FIG. 2A) pathways, the intrinsic relative activities (RAi) model was used. […] Ultimately, these analyses together supported that N8279 was a G protein-biased agonist of both proximal and downstream GHSR1a-Gαq signaling.
# hGHSR1a^WT-RLucII [7] = target: T3, hGHSR1a^WT-RLucII; assay: Bystander BRET endosomal trafficking (2xFYVE-Venus); assay type: cell-based; conditions: 60-minute post-treatment
# Protocol: as §1
# hGHSR1a^A204E [8] = target: T5, hGHSR1a^A204E; assay: NanoBiT β-arr2 recruitment at A204E variant; conditions: did not reach saturation
# Target sequence in this assay (Q92847 whole entry A204E): as the sequence (Q92847 whole entry E197A) above, with A197E, A204E counted along it
# Target sequence in this assay (P32121 whole entry partner): as the sequence (P32121 whole entry partner) above
# Protocol: as §3
# [9] = 5 minute pretreatment, ghrelin 40 nM
smiles,measurement,setting,value
"COc1ccc(C(=O)c2c(C(=O)NCCCN(C)C)oc3ccc(Cl)cc3c2=O)cc1OC [Example N8279, 6-Chloro-3-(3,4-dimethoxybenzoyl)-N-(3-(dimethylamino)propyl)-4-oxo-4H-chromene-2-carboxamide]",Gαq dissociation potency reduction at GHSR1a^E197A,GHSR1a^E197A,~10 fold
same,SRF-RE potency reduction relative to L585,hGHSR1a^WT [1],~10 fold
same,SRF-RE potency reduction relative to ghrelin,hGHSR1a^WT [1],~15 fold
same,SRF-RE transcription efficacy in words,hGHSR1a^WT [1],full agonist
same,internalization efficacy reduction relative to ghrelin (ELISA),hGHSR1a^WT [2],~30%
same,internalization potency reduction relative to ghrelin (ELISA),hGHSR1a^WT [2],24 fold
same,activation above baseline at any other GPCR,GPCRome (320 receptors),≤ 3 fold
same,internalization efficacy attenuation relative to ghrelin (bBRET MyrPalm),hGHSR1a^WT-RLucII [3],~20%
same,internalization potency reduction relative to ghrelin (bBRET MyrPalm),hGHSR1a^WT-RLucII [3],32 fold
same,"NanoBiT β-arr2 recruitment, fold less potent than L585",[4],~43 fold
same,"NanoBiT β-arr2 recruitment, fold less potent than ghrelin",[4],~20 fold
same,inhibition of EC80 ghrelin-induced β-arr2 recruitment in words,[4]; [9],"significantly, but incompletely"
same,"inhibition of EC80 ghrelin-induced β-arr2 recruitment, fold less potent than JMV2959",[4]; [9],1.7 fold
same,"inhibition of EC80 ghrelin-induced β-arr2 recruitment, fold less potent than YIL781",[4]; [9],2.9 fold
same,"relative affinity (BiTd) of β-arr2 for GHSR1a, fold weaker than in ghrelin-treated cells","[4]; saturation, N8279 100-200 nM vs ghrelin 100 nM",22.5 fold
same,iCa2+ efficacy at GHSR1a^A204E in words,hGHSR1a^A204E [5],full agonism was retained
same,iCa2+ potency reduction at GHSR1a^A204E vs WT,hGHSR1a^A204E [5],6.5 fold
same,agonist-induced iCa2+ in Gαq/11 KO cells,[6],abolished
same,downstream bias,GHSR1a; reference L585,~14 fold
same,downstream bias factor (β),GHSR1a; reference L585,1.15
same,proximal bias,GHSR1a; reference L585,~28 fold
same,proximal bias factor (β),GHSR1a; reference L585,1.45
same,"assay-standardized proximal bias factor (β), BRET-Gαq/BRET-β-arr2",GHSR1a; reference ghrelin,1.16±0.11 and 1.16
same,"assay-standardized proximal bias factor (β), NanoBiT-Gαq/NanoBiT-β-arr2",GHSR1a; reference ghrelin,1.36±0.33 and 1.36
same,"assay-standardized proximal bias, BRET-Gαq/BRET-β-arr2",GHSR1a; reference ghrelin,~14 fold
same,"assay-standardized proximal bias, NanoBiT-Gαq/NanoBiT-β-arr2",GHSR1a; reference ghrelin,~23 fold
same,"downstream bias factor (β), iCa2+ vs NanoBiT β-arr2",GHSR1a; reference ghrelin,2.63
same,"downstream bias, iCa2+ vs NanoBiT β-arr2",GHSR1a; reference ghrelin,~427 fold
same,"proximal bias factor (β), Gαq dissociation vs NanoBiT β-arr2",GHSR1a; reference ghrelin,0.59
same,"proximal bias, Gαq dissociation vs NanoBiT β-arr2",GHSR1a; reference ghrelin,~4 fold
same,"endosomal transit, fold less potent than ghrelin (bBRET 2xFYVE)",hGHSR1a^WT-RLucII [7],32 fold
same,"endosomal transit, less efficacious than ghrelin (bBRET 2xFYVE)",hGHSR1a^WT-RLucII [7],~35%
same,β-arr2 recruitment potency reduction at GHSR1a^A204E vs WT,hGHSR1a^A204E [8],> 20 fold
